# Laboratory results from patent publication US8053585B2, “Protecting group for carboxylic acids that can be photolyzed by visible light” (Cornell Research Foundation, Inc., priority 2006, dated 2011).
# What was measured:
# Assay type in all cases: cell-based
# [1] = molecular target: T1, α1-subunit human glycine receptor (Homo sapiens, UniProt P23415); test: Stability in aqueous solution by whole-cell current recording, cells used as glycine detector; details: 1 mM solution, 20 hours in the dark, pH 7.4
# T1 construct: expressed in transfected cells; host or cells: HEK 293 cells, transiently transfected (Polyfect), co-transfected with GFP plasmid as marker; cDNA from Prof; H. Betz
# T1 sequence (P23415 29-457): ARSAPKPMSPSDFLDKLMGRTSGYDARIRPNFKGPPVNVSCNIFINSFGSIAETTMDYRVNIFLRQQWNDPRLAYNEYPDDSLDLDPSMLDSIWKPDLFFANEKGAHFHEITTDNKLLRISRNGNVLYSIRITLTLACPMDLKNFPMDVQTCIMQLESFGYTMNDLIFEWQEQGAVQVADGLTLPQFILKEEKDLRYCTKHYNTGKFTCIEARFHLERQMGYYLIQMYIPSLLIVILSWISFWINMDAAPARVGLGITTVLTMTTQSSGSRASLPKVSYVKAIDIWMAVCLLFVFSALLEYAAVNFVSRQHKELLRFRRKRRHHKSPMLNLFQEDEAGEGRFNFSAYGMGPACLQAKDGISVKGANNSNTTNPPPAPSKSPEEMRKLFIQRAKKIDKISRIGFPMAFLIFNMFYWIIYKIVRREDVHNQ
# Excerpt: (§1) In whole-cell current recording experiments with DECM-caged glutamate, HEK 293 cells stably transfected with cDNA encoding the GluR6 were used. In whole-cell current recording experiments with DECM-caged glycine, HEK 293 cells were transiently transfected with the cDNA of the α1-subunit of the human glycine receptor by using the Polyfect™ transfection reagent (Qiagen GmbH, D-40724, Hilden, Germany). The cDNA of the α1-subunit was kindly provided by Professor H. Betz (Max-Plank-Institute for brain Research, Frankfurt, Germany). The cells were co-transfected with cDNA encoding the green fluorescent protein (pGreen Lantern plasmid, Life Technologies, Gaitherberg, Md.) to detect transfected cells (Chalfie et al., “Green Fluorescent Protein as a Marker for Gene Expression,” Science 263:802-805 (1994), which is hereby incorporated by reference in its entirety).
# The cells were used for electrophysiological experiments between 24 and 72 h after each passage. Whole-cell currents evoked by glutamate or glycine (100 μM) were recorded using the whole-cell configuration (Hamill et al., “Improved Patch-Clamp Techniques for High-Resolution Current Recording From Cells and Cell-Free Membrane Patches,” Pfluegers Arch 391:85-100 (1981), which is hereby incorporated by reference in its entirety) at room temperature, −60 mV, and pH 7.4. […]
# [2] = test system: GluR6 glutamate receptor; test: Whole-cell current recording with cell-flow method, HEK 293 cells expressing GluR6
# Excerpt: as §1
# The cells were used for electrophysiological experiments between 24 and 72 h after each passage. Whole-cell currents evoked by glutamate or glycine (100 μM) were recorded using the whole-cell configuration (Hamill et al., “Improved Patch-Clamp Techniques for High-Resolution Current Recording From Cells and Cell-Free Membrane Patches,” Pfluegers Arch 391:85-100 (1981), which is hereby incorporated by reference in its entirety) at room temperature, −60 mV, and pH 7.4. The experiments using DECM-caged glutamate were carried out in the absence or presence of 2 mM DECM-caged glutamate (FIG. 5A) or 1 mM 7-N,N-diethylamino-4-hydroxymethylcoumarin (2) (FIG. 5B). Alternatively, the experiments using DECM-caged glycine were carried out in the absence or presence of 1 mM DECM-caged-glycine (FIG. 10). The solution in the recording pipet contained 120 mM CsCl, 10 mM EGTA, and 10 mM HEPES, adjusted to pH 7.4. The HEK cell bath solution contained 150 mM NaCl, 1 mM CaCl2, 10 mM HEPES, pH 7.4. The resistance of the recording electrode filled with buffer solution was typically 3-5 MΩ and the series resistance was 5-6 MΩ. The cells were held at a constant transmembrane voltage of −60 mV and room temperature (22° C.). […]
# [3] = test system: GluR6 glutamate receptor; test: Laser-pulse photolysis of DECM-caged glutamate on HEK 293 cells; details: 2 mM caged compound, −60 mV, pH 7.4, 22° C.
# Experimental: The cells were used for electrophysiological experiments between 24 and 72 h after each passage. Whole-cell currents evoked by glutamate or glycine (100 μM) were recorded using the whole-cell configuration (Hamill et al., “Improved Patch-Clamp Techniques for High-Resolution Current Recording From Cells and Cell-Free Membrane Patches,” Pfluegers Arch 391:85-100 (1981), which is hereby incorporated by reference in its entirety) at room temperature, −60 mV, and pH 7.4. The experiments using DECM-caged glutamate were carried out in the absence or presence of 2 mM DECM-caged glutamate (FIG. 5A) or 1 mM 7-N,N-diethylamino-4-hydroxymethylcoumarin (2) (FIG. 5B). Alternatively, the experiments using DECM-caged glycine were carried out in the absence or presence of 1 mM DECM-caged-glycine (FIG. 10). The solution in the recording pipet contained 120 mM CsCl, 10 mM EGTA, and 10 mM HEPES, adjusted to pH 7.4. The HEK cell bath solution contained 150 mM NaCl, 1 mM CaCl2, 10 mM HEPES, pH 7.4. The resistance of the recording electrode filled with buffer solution was typically 3-5 MΩ and the series resistance was 5-6 MΩ. […]
# The laser light produced by the Exalite (Exiton Inc., Dayton, Ohio) 404 dye (≧400 nm) was coupled into an optical fiber (300 μm internal diameter), which delivered the light to the cell. […] Data were analyzed with Microcal Origin3.5 software (Microcal, Northampton, Mass.).
Compound,free glycine in solution of caged compound [1],"whole-cell current evoked by 100 μM glutamate, presence vs absence of compound ([2]; 2 mM DECM-caged glutamate, −60 mV, pH 7.4, 22° C.)",biological activity at glutamate receptors (inhibition or activation) ([2]; HEK-293 cells expressing glutamate receptors),"I∞, current at t=∞ [3] [pA]","kobs, apparent pseudo-first-order rate constant of the current rise [3] [s⁻¹]"
"CCN(CC)c1ccc2c(COC(=O)CN)cc(=O)oc2c1 [DECM-caged glycine, (7-N,N-Diethylaminocoumarin-4-yl)-methyl-glycine-trifluoroacetate]",no free glycine was detected,–,–,–,–
"CCN(CC)c1ccc2c(COC(=O)CCC(N)C(=O)O)cc(=O)oc2c1 (centres unmarked) [DECM-caged glutamate, (7-N,N-Diethylaminocoumarin-4-yl)-methyl-glutamate-trifluoroacetate]",–,do not inhibit,biologically inert,−1590,765 ± 14
